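Compound exposure: 48 hours, 5 concentrations, 96-well plates. GI50 = concentration required for 50% inhibition of growth. Definition used: TGI = concentration required for complete inhibition of growth.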
Assays:
Test in all cases: NCI tumour cell line growth inhibition, 48 h
A498 renal = system: A498 renal
ACHN renal = system: ACHN renal
HOP-92 NSCLC = system: HOP-92 NSCLC
MOLT-4 leukemia = system: MOLT-4 leukemia
SF-268 CNS = system: SF-268 CNS
SF-539 CNS = system: SF-539 CNS
SNB-19 CNS = system: SNB-19 CNS
SNB-75 CNS = system: SNB-75 CNS
SR leukemia = system: SR leukemia
TK-10 renal = system: TK-10 renal

## Cn1c(=O)c2c(ncn2CN2CCN(Cn3cnc4c3c(=O)n(C)c(=O)n4C)CC2)n(C)c1=O
A498 renal
  TGI: > 100 µM
ACHN renal
  TGI: > 100 µM
HOP-92 NSCLC
  TGI: > 100 µM
MOLT-4 leukemia
  TGI: 41.4 µM
SF-268 CNS
  TGI: > 100 µM
SF-539 CNS
  TGI: > 100 µM
SNB-19 CNS
  TGI: > 100 µM
SNB-75 CNS
  TGI: > 100 µM
SR leukemia
  TGI: > 100 µM
TK-10 renal
  TGI: > 100 µM

## O=C(O)CSc1ncccc1[N+](=O)[O-]
A498 renal
  TGI: > 100 µM
ACHN renal
  TGI: > 100 µM
HOP-92 NSCLC
  TGI: > 100 µM
MOLT-4 leukemia
  TGI: > 100 µM
SF-268 CNS
  TGI: > 100 µM
SF-539 CNS
  TGI: > 100 µM
SNB-19 CNS
  TGI: > 100 µM
SNB-75 CNS
  TGI: > 100 µM
SR leukemia
  TGI: > 100 µM
TK-10 renal
  TGI: > 100 µM

## COc1ccc(CN2c3ccccc3CCc3ccccc32)cc1F
A498 renal
  GI50: 0.339 µM
  TGI: > 100 µM
ACHN renal
  GI50: 0.604 µM
  TGI: > 100 µM
HOP-92 NSCLC
  GI50: 0.587 µM
  TGI: 48 µM
MOLT-4 leukemia
  GI50: 0.554 µM
  TGI: > 100 µM
SF-268 CNS
  GI50: 0.66 µM
  TGI: > 100 µM
SF-539 CNS
  GI50: 0.287 µM
  TGI: 0.958 µM
SNB-19 CNS
  GI50: 0.697 µM
  TGI: > 100 µM
SNB-75 CNS
  GI50: 0.277 µM
  TGI: > 100 µM
SR leukemia
  GI50: 0.463 µM
  TGI: > 100 µM
TK-10 renal
  GI50: 0.611 µM
  TGI: > 100 µM

## CCN(CC)c1ccc2c(c1)Nc1cc(=C(C#N)C#N)c3ccccc3c1=N2
A498 renal
  TGI: > 100 µM
ACHN renal
  TGI: > 100 µM
HOP-92 NSCLC
  TGI: > 100 µM
MOLT-4 leukemia
  TGI: > 100 µM
SF-268 CNS
  TGI: > 100 µM
SF-539 CNS
  TGI: > 100 µM
SNB-19 CNS
  TGI: > 100 µM
SNB-75 CNS
  TGI: > 100 µM
SR leukemia
  TGI: > 100 µM
TK-10 renal
  TGI: > 100 µM

## O=C1c2ccccc2-n2c1nc1ccccc1c2=O
A498 renal
  TGI: 59.8 µM
ACHN renal
  TGI: 29.3 µM
HOP-92 NSCLC
  TGI: > 100 µM
MOLT-4 leukemia
  TGI: > 100 µM
SF-268 CNS
  TGI: > 100 µM
SF-539 CNS
  TGI: 43.3 µM
SNB-19 CNS
  TGI: > 91.2 µM
SNB-75 CNS
  TGI: 83.8 µM
SR leukemia
  TGI: > 100 µM
TK-10 renal
  TGI: > 100 µM

## C=C1C(=O)OC2/C=C(\C=O)CC/C=C(\C)C(O)C[C@@H]12 (stereo not given in full)
A498 renal
  TGI: 22.1 µM
ACHN renal
  TGI: 19.9 µM
HOP-92 NSCLC
  TGI: 17.2 µM
MOLT-4 leukemia
  TGI: 21.4 µM
SF-268 CNS
  TGI: 14.7 µM
SF-539 CNS
  TGI: 27.2 µM
SNB-19 CNS
  TGI: 29.1 µM
SNB-75 CNS
  TGI: 29 µM
SR leukemia
  TGI: > 27.6 µM
TK-10 renal
  TGI: 24.7 µM

## C/C(=N\NC(N)=S)c1nc2ccc(Cl)cc2[nH]1
A498 renal
  GI50: 7.11 µM
  TGI: 22.5 µM
ACHN renal
  GI50: 0.848 µM
  TGI: 7.83 µM
HOP-92 NSCLC
  GI50: 12 µM
  TGI: 39.1 µM
MOLT-4 leukemia
  GI50: 1.78 µM
  TGI: > 50 µM
SF-268 CNS
  GI50: 2.03 µM
  TGI: 11.3 µM
SF-539 CNS
  GI50: 2.45 µM
  TGI: 9.7 µM
SNB-19 CNS
  GI50: 3.93 µM
  TGI: > 50 µM
SNB-75 CNS
  GI50: 2.29 µM
  TGI: 15.6 µM
SR leukemia
  GI50: 1.29 µM
  TGI: 15.9 µM
TK-10 renal
  GI50: 2.6 µM
  TGI: 20.7 µM

## Cc1nc(C(N)=S)sc1C(=O)C/C(=N/N)C(=O)Nc1cccc(Cl)c1C
A498 renal
  TGI: > 100 µM
ACHN renal
  TGI: > 100 µM
HOP-92 NSCLC
  TGI: > 100 µM
MOLT-4 leukemia
  TGI: > 100 µM
SF-268 CNS
  TGI: > 100 µM
SF-539 CNS
  TGI: > 100 µM
SNB-19 CNS
  TGI: > 100 µM
SNB-75 CNS
  TGI: > 100 µM
SR leukemia
  TGI: > 100 µM
TK-10 renal
  TGI: > 100 µM

## CC1CCN(CC(=O)N2c3ccccc3Sc3cc4ccccc4cc32)CC1
A498 renal
  TGI: > 100 µM
ACHN renal
  TGI: > 100 µM
HOP-92 NSCLC
  TGI: > 100 µM
MOLT-4 leukemia
  TGI: > 100 µM
SF-268 CNS
  TGI: > 100 µM
SF-539 CNS
  TGI: > 100 µM
SNB-19 CNS
  TGI: > 100 µM
SNB-75 CNS
  TGI: > 100 µM
SR leukemia
  TGI: > 100 µM
TK-10 renal
  TGI: > 100 µM

## CCN(CCNc1ccc(C)c2sc3ccccc3c(=O)c12)CC(C)(C)O
A498 renal
  GI50: 7.46 µM
  TGI: 21.5 µM
ACHN renal
  GI50: 12.3 µM
  TGI: 34.8 µM
HOP-92 NSCLC
  GI50: 5.47 µM
  TGI: 20.5 µM
MOLT-4 leukemia
  GI50: 6.26 µM
  TGI: > 46 µM
SF-268 CNS
  GI50: 14.9 µM
  TGI: 32.2 µM
SF-539 CNS
  GI50: 12.1 µM
  TGI: 25.2 µM
SNB-19 CNS
  GI50: 11.9 µM
  TGI: 25.9 µM
SNB-75 CNS
  GI50: 15.7 µM
  TGI: 48.6 µM
SR leukemia
  GI50: 4.76 µM
  TGI: > 100 µM
TK-10 renal
  GI50: 14.3 µM
  TGI: 33.7 µM

## COc1cc(S(C)(=O)=O)ccc1Nc1nc2ccc(-c3ccc(NC(=O)[C@H](C)c4ccc(F)cc4)cc3)cn2n1
A498 renal
  GI50: > 100 µM
  TGI: > 100 µM
ACHN renal
  GI50: > 83.5 µM
  TGI: > 100 µM
HOP-92 NSCLC
  GI50: > 51.1 µM
  TGI: > 100 µM
MOLT-4 leukemia
  GI50: 1.18 µM
  TGI: > 100 µM
SF-268 CNS
  GI50: > 100 µM
  TGI: > 100 µM
SF-539 CNS
  GI50: > 39.8 µM
  TGI: > 100 µM
SNB-19 CNS
  GI50: > 100 µM
  TGI: > 100 µM
SNB-75 CNS
  GI50: 47.1 µM
  TGI: > 100 µM
SR leukemia
  GI50: 0.211 µM
  TGI: > 100 µM
TK-10 renal
  GI50: > 100 µM
  TGI: > 100 µM
